The numbers were not newly measured in US5354868A, “Process for the preparation of (+)-hydantocidin and analogs thereof” (American Cyanamid Company, priority 1993, dated 1994), which cites them from elsewhere.

For series [1], the system named is annual and perennial weeds. Particulars: compared with glyphosphate and bialaphos.
The test system of a further series is mammals. Conditions: in vivo.

The structures appear in SMILES notation.

In the case of `O=C1NC(=O)[C@@]2(N1)O[C@H](CO)[C@@H](O)[C@H]2O` [(+)-Hydantocidin, D-ribose-1-spiro-5'-N^1' -β-hydantoin], the herbicidal activity entry in series [1] was “herbicidal activity at levels comparable to commercial standards such as glyphosphate and bialaphos”. In addition, the toxicity to mammals result in the series with mammals is “non-toxic to mammals”.
